Test: Average particle size and particle distribution by dynamic light scattering (Zetasizer Nano ZS)
Type: physicochemical
Conditions: for average particle size / particle distribution: DMSO as organic solvent
Procedure: (§1) KRN7000 was weighed in a test tube, 99.5% ethanol was added to adjust the concentration to 4 mg/mL, and the mixture was then heated to 76° C. to completely dissolve the KRN7000, so that a glycosphingolipid solution was obtained (the same applies for RCAI-56 or RCAI-61). On the other hand, inulin was weighed in a test tube, sterilized distilled water was added to adjust the concentration to 35 mg/mL, and the inulin was then completely dissolved to obtain an inulin solution. 50 μL of the glycosphingolipid solution was transferred to an additionally provided test tube, 950 μL of the inulin solution was added thereto, and quickly mixed by vortex, the mixture was left standing overnight at room temperature, and an equal amount of pure water was then added to reduce the concentration to ½. For the obtained dispersion solution, the average particle size and particle distribution were measured by a dynamic light scattering method (Zetasizer Nano ZS, Malvern). […] The final components of the glycosphingolipid hydrophilic protective colloidal solution obtained by this method, and the concentrations thereof are as follows: 0.1 mg/mL of glycosphingolipid, 17.5 mg/mL of inulin and 2.5% of ethanol.
as §1, with “pullulan” for “inulin”, “10” for “35”, “a pullulan” for “an inulin”, “glycosphingolipid” for “glycosphingolipid hydrophilic”, “5.0” for “17.5”
as §1, with “HPMC” for “inulin”, “1” for “35”, “a HPMC” for “an inulin”, “glycosphingolipid” for “glycosphingolipid hydrophilic”, “0.5” for “17.5”
Preparation of a hydrophobic colloidal solution of a glycosphingolipid using DMSO as an organic solvent was examined. KRN7000 was weighed in a test tube, DMSO was added to adjust the concentration to 2 mg/mL, and the mixture was heated to 85° C. to completely dissolve the KRN7000, so that a glycosphingolipid solution was obtained. […]

[1] = inulin, 0.4 mg/mL glycosphingolipid, 28 mg/mL inulin, 20% DMSO
[2] = Protective colloid: HPMC, 0.1 mg/mL glycosphingolipid, 0.5 mg/mL HPMC, 2.5% ethanol
[3] = Protective colloid: Inulin, 0.1 mg/mL glycosphingolipid, 17.5 mg/mL inulin, 2.5% ethanol
[4] = Protective colloid: None, glycosphingolipid dissolved in ethanol, mixed with water
[5] = Protective colloid: Pullulan, 0.1 mg/mL glycosphingolipid, 5.0 mg/mL pullulan, 2.5% ethanol

Structure (SMILES): CCCCCCCCCCCCCCCCCCCCCCCCCC(=O)N[C@@H](CO[C@H]1O[C@H](CO)[C@H](O)[C@H](O)[C@H]1O)[C@H](O)[C@H](O)CCCCCCCCCCCCCC [KRN7000, (2S,3S,4R)-1-O-(α-D-galactosyl)-N-hexacosanoyl-2-amino-1,3,4-octadecanetriol]
- average particle size [1]: 345.5 nm
- particle distribution [1]: monodispersed particles
- average particle size (protective colloid not used): large average particle size
- particle distribution (protective colloid not used): polydispersed particles
- Average particle size (diameter, nm) [2]: 192 nm
- Particle size distribution [2]: Monodispersed
- Average particle size (diameter, nm) [3]: 156 nm
- Particle size distribution [3]: Monodispersed
- Average particle size (diameter, nm) [4]: 1536 nm
- Particle size distribution [4]: Polydispersed
- Average particle size (diameter, nm) [5]: 149 nm
- Particle size distribution [5]: Monodispersed

Structure (SMILES): CCCCCCCCCCCCCCCCCCCCCCCCCC(=O)N[C@@H](CO[C@H]1CC(CO)[C@H](O)[C@H](O)C1O)[C@H](O)[C@H](O)CCCCCCCCCCCCCC (stereo partly shown) [RCAI-56]
- Average particle size (diameter, nm) [2]: 380 nm
- Particle size distribution [2]: Monodispersed
- Average particle size (diameter, nm) [3]: 169 nm
- Particle size distribution [3]: Monodispersed
- Average particle size (diameter, nm) [4]: 435 nm
- Particle size distribution [4]: Polydispersed
- Average particle size (diameter, nm) [5]: 174 nm
- Particle size distribution [5]: Monodispersed

Structure (SMILES): CCCCCCCCCCCCCCCCCCCCCCCCCC(=O)N[C@@H](CO[C@H]1O[C@H](COC)[C@H](O)[C@H](O)[C@H]1O)[C@H](O)[C@H](O)CCCCCCCCCCCCCC [RCAI-61]
- Average particle size (diameter, nm) [2]: 191 nm
- Particle size distribution [2]: Monodispersed
- Average particle size (diameter, nm) [3]: 298 nm
- Particle size distribution [3]: Monodispersed
- Average particle size (diameter, nm) [4]: 683 nm
- Particle size distribution [4]: Polydispersed
- Average particle size (diameter, nm) [5]: 151 nm
- Particle size distribution [5]: Monodispersed
